According to EPA's ToxRefDB 2:

What was measured:
rat [1] = details: Combined chronic toxicity/carcinogenicity, sprague dawley, Oral, Water, dose end: 104 week, group: systemic
rabbit [2] = details: Prenatal developmental toxicity study, new zealand white, Oral, Gavage/Intubation, dose end: 27 GD, group: maternal
dog = details: Sub-acute repeat dose toxicity, beagle, Oral, Water, dose end: 28 day, group: systemic
rat [3] = details: Multigenerational reproductive toxicity study, sprague dawley, Oral, Water, dose end: 2 generation
rabbit [4] = details: Prenatal developmental toxicity study, new zealand white, Oral, Gavage/Intubation, dose end: 19 GD
rat [5] = details: Multigenerational reproductive toxicity study, other, Oral, Water, dose end: 2 generation
[6] = systemic / in life observation / water consumption / water consumption
[7] = systemic / in life observation / body weight / body weight + systemic / in life observation / food consumption / food consumption + systemic…
[8] = systemic / pathology microscopic / nose / inflammation
[9] = systemic / pathology microscopic / nose / inflammation + systemic / pathology microscopic / stomach / hypertrophy
[10] = group: offspring, reproductive / offspring survival early / dead fetuses / dead fetuses + reproductive / offspring survival early / live fetuses / live …
[11] = group: parental, systemic / in life observation / food consumption / food consumption + systemic / in life observation / water consumption / water …
[12] = group: reproductive, reproductive / reproductive performance / dystocia / dystocia
[13] = group: reproductive, reproductive / reproductive performance / dystocia / dystocia + reproductive / reproductive performance / postimplantation loss / …
[14] = group: developmental, developmental / developmental malformation / aortic arch / dilated + developmental / developmental malformation / bone / [other] + …
[15] = group: maternal, systemic / in life observation / body weight / body weight gain + systemic / in life observation / clinical signs / defecation + systemic / …
[16] = group: offspring, systemic / in life observation / body weight / offspring (pup) weight + systemic / organ weight / kidney / absolute + systemic / organ …
[17] = group: parental, systemic / in life observation / water consumption / water consumption
[18] = group: parental, systemic / in life observation / water consumption / water consumption + systemic / in life observation / body weight / body weight + …
[19] = group: reproductive, reproductive / reproductive performance / fertility / fertility

O=[N+]([O-])C(Br)(CO)CO [Bronopol]
LEL (rat [1]; [6]): 10 mg/kg/day | NEL (rat [1]; [6]): < 10 mg/kg/day | LOAEL (rat [1]; systemic / in life observation / water consumption / water consumption + systemic / in life observation / body weight / body weight gain + …): 40 mg/kg/day | NOAEL (rat [1]; systemic / in life observation / water consumption / water consumption + systemic / pathology microscopic / stomach / squamous cell …): 10 mg/kg/day | LOAEL (rabbit [2]; systemic / in life observation / body weight / body weight + systemic / in life observation / food consumption / food consumption): 40 mg/kg/day | LEL (rabbit [2]; [7]): 40 mg/kg/day | NEL (rabbit [2]; [7]): 10 mg/kg/day | NOAEL (rabbit [2]; [7]): 10 mg/kg/day | LEL (dog; [8]): 4.1 mg/kg/day | NEL (dog; [8]): < 4.1 mg/kg/day | LOAEL (dog; [9]): > 32.6 mg/kg/day | NOAEL (dog; [9]): ≥ 32.6 mg/kg/day | LEL (rat [3]; [10]): 150 mg/kg/day | LOAEL (rat [3]; [10]): 150 mg/kg/day | NEL (rat [3]; [10]): 50 mg/kg/day | NOAEL (rat [3]; [10]): 50 mg/kg/day | LEL (rat [3]; [11]): 50 mg/kg/day | LOAEL (rat [3]; [11]): 50 mg/kg/day | NEL (rat [3]; [11]): 10 mg/kg/day | NOAEL (rat [3]; [11]): 10 mg/kg/day | NEL (rat [3]; [12]): 50 mg/kg/day | NOAEL (rat [3]; [12]): 50 mg/kg/day | LEL (rat [3]; [13]): 150 mg/kg/day | LOAEL (rat [3]; [13]): 150 mg/kg/day | LEL (rabbit [4]; [14]): 80 mg/kg/day | LOAEL (rabbit [4]; [14]): 80 mg/kg/day | NEL (rabbit [4]; [14]): 40 mg/kg/day | NOAEL (rabbit [4]; [14]): 40 mg/kg/day | LEL (rabbit [4]; [15]): 80 mg/kg/day | LOAEL (rabbit [4]; [15]): 80 mg/kg/day | NEL (rabbit [4]; [15]): 40 mg/kg/day | NOAEL (rabbit [4]; [15]): 40 mg/kg/day | NEL (rat [5]; group: offspring, systemic / in life observation / body weight / offspring (pup) weight): 70 mg/kg/day | LEL (rat [5]; [16]): 200 mg/kg/day | LOAEL (rat [5]; [16]): > 200 mg/kg/day | NOAEL (rat [5]; [16]): ≥ 200 mg/kg/day | LEL (rat [5]; [17]): 25 mg/kg/day | NEL (rat [5]; [17]): < 25 mg/kg/day | LOAEL (rat [5]; [18]): > 200 mg/kg/day | NOAEL (rat [5]; [18]): ≥ 200 mg/kg/day | LEL (rat [5]; [19]): 200 mg/kg/day | LOAEL (rat [5]; [19]): > 200 mg/kg/day | NEL (rat [5]; [19]): 70 mg/kg/day | NOAEL (rat [5]; [19]): ≥ 200 mg/kg/day
